These are literature values, as cited in patent publication US20060034872A1, “Compositions and methods for preventing abuse of orally administered medications” (priority 2002, published 2006).

Each structure is given as a SMILES string.

For series [1], the target named is T1, VR1 receptors of nociceptive afferent neurons (Homo sapiens, UniProt Q8NER1).
T1 construct: selective stimulation of the VR1 receptors of nociceptive afferent neurons; from tissue; host or cells: nociceptive afferent neurons in vivo (skin, oral/nasal mucosa, airways, paravenous tissue)
T1 sequence (Q8NER1 whole entry): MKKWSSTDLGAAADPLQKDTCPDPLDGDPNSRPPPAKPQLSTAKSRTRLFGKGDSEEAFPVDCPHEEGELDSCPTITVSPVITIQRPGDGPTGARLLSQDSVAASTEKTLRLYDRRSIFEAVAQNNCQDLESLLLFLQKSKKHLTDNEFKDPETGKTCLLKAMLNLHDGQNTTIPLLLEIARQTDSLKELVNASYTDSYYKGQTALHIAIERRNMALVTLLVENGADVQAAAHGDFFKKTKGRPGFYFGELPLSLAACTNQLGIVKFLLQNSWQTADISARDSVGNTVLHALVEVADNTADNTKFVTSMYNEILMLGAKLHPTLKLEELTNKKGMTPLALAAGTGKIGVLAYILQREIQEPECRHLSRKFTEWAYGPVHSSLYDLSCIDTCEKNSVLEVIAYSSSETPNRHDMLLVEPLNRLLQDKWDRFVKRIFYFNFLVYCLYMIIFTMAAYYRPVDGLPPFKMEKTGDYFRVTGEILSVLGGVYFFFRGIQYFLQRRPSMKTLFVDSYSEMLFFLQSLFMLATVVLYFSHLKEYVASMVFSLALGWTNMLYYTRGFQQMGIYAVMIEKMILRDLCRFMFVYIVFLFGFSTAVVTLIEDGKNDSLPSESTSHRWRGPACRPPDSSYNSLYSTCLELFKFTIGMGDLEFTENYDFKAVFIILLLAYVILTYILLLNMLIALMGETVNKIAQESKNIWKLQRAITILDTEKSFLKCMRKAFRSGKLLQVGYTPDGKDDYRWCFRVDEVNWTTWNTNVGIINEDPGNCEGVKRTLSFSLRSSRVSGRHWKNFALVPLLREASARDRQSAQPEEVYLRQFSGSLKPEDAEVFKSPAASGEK
The following applies: for sensation elicited by application: applied to skin, oral or nasal mucosa, or subdermal tissue.

Series [2] has as its target T1, VR1 receptors of nociceptive afferent neurons. The following applies: ingestion; as little as.
The conditions of series [3]: long term intranasal, 0.15 mg per nostril every 2-3 days, total dose 1.05 mg.
For series [4], the target named is T1, VR1 receptors of nociceptive afferent neurons. Conditions: nasal instillation.
The next series has as its target T2, VR1 receptors (Homo sapiens, UniProt Q8NER1).
T2 construct: selective stimulation of the VR1 receptors of nociceptive afferent neurons; from tissue; host or cells: nociceptive afferent neurons in vivo (skin, oral/nasal mucosa, airways, paravenous tissue)

Assay in series [5]: not given
This is another data set of the same source.

The next series concerns the target T3, peripheral VR1 receptors (Homo sapiens, UniProt Q8NER1).
T3 construct: from tissue

A further series concerns the target T4, bronchial VR1 (Homo sapiens, UniProt Q8NER1).
T4 construct: selective stimulation of the VR1 receptors of nociceptive afferent neurons; from tissue; host or cells: nociceptive afferent neurons in vivo (skin, oral/nasal mucosa, airways, paravenous tissue)
The following applies: inhaled, 10^−3-10^−8M solutions.

The conditions of series [6]: repeated intravesical instillation, 1-2 mM, over five years.

T2 sequence (Q8NER1 whole entry): as above
T3 sequence (Q8NER1 whole entry): as above
T4 sequence (Q8NER1 whole entry): as above

Regarding `COc1ccc2c3c1O[C@H]1C(=O)CC[C@@]4(O)[C@@H](C2)N(C)CC[C@]314` [oxycodone], the “biological and therapeutic half-lives” value (in vivo) is “very short”. In addition, the bioavailability result (oral and intranasal administration) is “high”.
As for `C=C(C)[C@]12C[C@@H](C)[C@@]34O[C@](Cc5ccccc5)(O[C@@H]1[C@@H]3C=C(COC(=O)Cc1ccc(O)c(OC)c1)C[C@]1(O)C(=O)C(C)=C[C@@H]41)O2` [resiniferatoxin], the “sensation elicited by application” value in series [1] is “burning pain”.
For `COc1cc(CNC(=O)CCCC/C=C/C(C)C)ccc1O` [capsaicin], the “sensation elicited by application” value in series [1] is “burning pain”. The “sensation following application of dermal cream” value in [1] (dermal cream containing 0.075% capsaicin) is recorded as “burning pain sensation”. For the same compound, the “amount ingested after which tongue and throat irritation occurs” value in series [2] is 3 ppm. Moreover, the histological abnormalities result in series [3] was “no histological abnormalities”. In addition, the “amount instilled giving nasal irritation and rhinorrhea” value in series [4] was 75 to 150 µg. Also, the “pain when injected directly into a vein” value at VR1 receptors (injected directly into a vein, up to 650 μM) is “does not cause pain”. Moreover, the “pain when injected intradermally” value at VR1 receptors (intradermal injection) is given as “very severe pain”. The “low capsaicin doses to which paravenous tissue is highly sensitive” value at VR1 receptors (paravenous tissue) is 0.3 to 6.5 µM. Also, in series [5] (oral administration), the “absorption from the gastrointestinal tract” value is reported as “readily absorbed” and the “metabolism in the liver” value was “almost completely metabolized”. In addition, the “maximum tolerated dose (MTD)” value at peripheral VR1 receptors (humans) is on record as “approximately 4 μg/kg”. On peripheral VR1 receptors (injection directly into the superior vena cava), the “dose producing raw, burning sensation in chest, face, rectum and extremities” value was greater than 0.5 µg/kg. Also, the “immediate effect of inhalation” value at bronchial VR1 is “sneezing, coughing, and airway constriction”. Also, in series [6], the pathological tissue changes result is listed as “did not result in pathological tissue changes”.
As for `CCCCCCCC/C=C\CCCCCCCC(=O)NCc1ccc(O)c(OC)c1` [olvanil], in series [5] (in vivo), the first pass metabolism result is on record as “subject to first pass metabolism”.
